Laboratory results as given in EP0085842A1, “Antimycosic agents” (BAYER AG, priority 1982, dated 1983).
Converted amounts (≈) assume the structure as drawn.

Tests used:
Candida albicans = assay: Antimycotic in-vitro activity, serial dilution test (MIC); type: cell-based; conditions: Fleischextrakt-Traubenzucker-Bouillon, 20°C, 24 to 96 h, inoculum 5 x 10^4 Keime/ml, read-out: MHK-Werte in γ/ml Nährmedium Candida albicans
Protocol: (§1) Versuchsbeschreibung: • Die in-vitro-Prüfungen wurden im Reihenverdünnungstest mit Keiminokula von durchschnittlich 5 x 10^4 Keimen/ml Substrat durchgeführt. Als Nährmedium dienten • a) für Dermatophyten und Schimmelpilze: Sabouraud's milieu d'epreuve • b) für Hefen: • Fleischextrakt-Traubenzucker-Bouillon.
(§2) Die Bebrütungstemperatur betrug 20°C, die Bebrütungsdauer lag bei 24 bis 96 Stunden bei Hefen und 96 Stunden bei Dermatophyten und Schimmelpilzen.

Microsporum canis = assay: as above; type: cell-based; conditions: Sabouraud's milieu d'epreuve, 20°C, 96 h, inoculum 5 x 10^4 Keime/ml, read-out: MHK-Werte in γ/ml Nährmedium Microsporum canis
Protocol: as §1, §2

Aspergillus fumigatus = assay: as above; type: cell-based; conditions: Sabouraud's milieu d'epreuve, 20°C, 96 h, inoculum 5 x 10^4 Keime/ml, read-out: MHK-Werte in γ/ml Nährmedium Aspergillus fumigatus
Protocol: as §1, §2

Torulopsis glabrata = assay: as above; type: cell-based; conditions: Nakaseomyces glabratus; Fleischextrakt-Traubenzucker-Bouillon, 20°C, 24 to 96 h, inoculum 5 x 10^4 Keime/ml; read-out: MHK-Werte in γ/ml Nährmedium Torulopsis glabrata
Protocol: as §1, §2

Trichophyton mentagr. = assay: as above; type: cell-based, Trichophyton mentagrophytes; conditions: Sabouraud's milieu d'epreuve, 20°C, 96 h, inoculum 5 x 10^4 Keime/ml, read-out: MHK-Werte in γ/ml Nährmedium Trichophyton mentagr.
Protocol: as §1, §2

Candida-Zellen = assay: Antimycotic in-vivo activity (oral) in mouse candidosis; parameters: species or system Mäuse vom Typ SPF-CF1; key to Wirkung: +++++: sehr gute Wirkung = 90 % Überlebende am 6.Tag p.i.; ++++: gute Wirkung = 80 % Überlebende am 6.Tag p.i.; +++: Wirkung = 60 % Überlebende am 6.Tag p.i.; ++: schwache Wirkung = 40 % Überlebende am 6.Tag p.i.; +: Spur Wirkung = unter 40 % Überlebende am 6.Tag p.i.; k.W.: keine Wirkung; conditions: for Wirkung: mice infected i.v. with Candida, oral 50 - 100 mg/kg one hour before and seven hours after infection, survivors on day 6 p.i.; for Wirkung compared with known compounds (A), (B), (C) and (D): mouse candidosis, oral 50 - 100 mg/kg
Protocol: Mäuse vom Typ SPF-CF1 wurden intravenös mit 1 - 2 x 10^6 logarithmisch wachsenden Candida-Zellen, die in physiologischer Kochsalzlösung suspendiert werden, infiziert. Eine Stunde vor und sieben Sunden nach der Infektion werden die Tiere mit jeweils 50 - 100 mg/kg Körpergewicht der Präparate oral behandelt.
Unbehandelte Tiere starben 3 bis 6 Tage post infektionem. Die Überlebensrate am 6. Tag post infektionem betrug bei unbehandelten Kontrolltieren etwa 5 %.
+++++ = sehr gute Wirkung = 90 % Überlebende am 6.Tag p.i. ++++ = gute Wirkung = 80 % Überlebende am 6.Tag p.i. +++ = Wirkung = 60 % Überlebende am 6.Tag p.i. ++ = schwache Wirkung = 40 % Überlebende am 6.Tag p.i. + = Spur Wirkung = unter 40 % Überlebende am 6.Tag p.i. k.W. = keine Wirkung

MIC (Candida albicans)	MIC (Microsporum canis)	MIC (Aspergillus fumigatus)	MIC (Torulopsis glabrata)	MIC (Trichophyton mentagr.)	SMILES	Wirkung (Candida-Zellen)	Wirkung compared with known compounds (A), (B), (C) and (D) (Candida-Zellen)
< 1 µg/mL	< 1 µg/mL	4 µg/mL (≈ 11.3 µM)	4 µg/mL (≈ 11.3 µM)	< 1 µg/mL	COCC(C)(C)C(O)(COc1ccc(Cl)cc1C)Cn1cncn1 (stereo not drawn) [Beispiel 17]	–	–
2 µg/mL (≈ 6.98 µM)	16 µg/mL (≈ 55.9 µM)	64 µg/mL (≈ 223 µM)	16 µg/mL (≈ 55.9 µM)	8 µg/mL (≈ 27.9 µM)	Cc1ccccc1CCC(O)(Cn1ccnc1)C(C)(C)C (stereo not drawn) [(D), reference compound]	k.W.	–
8 µg/mL (≈ 18.3 µM)	2 µg/mL (≈ 4.58 µM)	< 1 µg/mL	2 µg/mL (≈ 4.58 µM)	< 1 µg/mL	CC(C)(COc1ccc(Cl)cc1)C(O)(COc1ccc(Cl)cc1)Cn1cncn1 (stereo not drawn) [Beispiel 19]	–	–
< 1 µg/mL	8 µg/mL (≈ 22.3 µM)	16 µg/mL (≈ 44.5 µM)	2 µg/mL (≈ 5.57 µM)	4 µg/mL (≈ 11.1 µM)	CC(C)(CF)C(O)(CCc1ccc(Cl)cc1Cl)Cn1ccnc1 (stereo not drawn) [Beispiel 38]	+++ (Wirkung = 60 % Überlebende am 6.Tag p.i.)	bessere Wirkung
< 1 µg/mL	4 µg/mL (≈ 11.3 µM)	4 µg/mL (≈ 11.3 µM)	4 µg/mL (≈ 11.3 µM)	< 1 µg/mL	CCOCC(C)(C)C(O)(COc1ccc(Cl)cc1)Cn1cncn1 (stereo not drawn) [Beispiel 18]	–	–
< 1 µg/mL	8 µg/mL (≈ 24.7 µM)	32 µg/mL (≈ 99 µM)	2 µg/mL (≈ 6.18 µM)	2 µg/mL (≈ 6.18 µM)	COCC(C)(C)C(O)(COc1ccc(F)cc1)Cn1cncn1 (stereo not drawn) [Beispiel 20]	–	–
< 1 µg/mL	4 µg/mL (≈ 11.8 µM)	8 µg/mL (≈ 23.5 µM)	8 µg/mL (≈ 23.5 µM)	2 µg/mL (≈ 5.89 µM)	COCC(C)(C)C(O)(COc1ccc(Cl)cc1)Cn1cncn1 (stereo not drawn) [Beispiel 2]	–	–
< 1 µg/mL	2 µg/mL (≈ 5.34 µM)	8 µg/mL (≈ 21.4 µM)	2 µg/mL (≈ 5.34 µM)	< 1 µg/mL	COCC(C)(C)C(O)(COc1ccc(Cl)cc1Cl)Cn1cncn1 (stereo not drawn) [Beispiel 16]	–	–
< 1 µg/mL	< 1 µg/mL	< 1 µg/mL	32 µg/mL (≈ 88 µM)	< 1 µg/mL	C=CC(C)(C)C(O)(COc1ccc(-c2ccccc2)cc1)Cn1cncn1 (stereo not drawn) [Beispiel 4, 4-(4-Biphenylyloxymethyl)-3,3-dimethyl-4-hydroxy-5-(1,2,4-triazol-1-yl)-1-penten]	+++++ (sehr gute Wirkung = 90 % Überlebende am 6.Tag p.i.)	bessere Wirkung
32 µg/mL (≈ 111 µM)	–	> 64 µg/mL	> 64 µg/mL	32 µg/mL (≈ 111 µM)	Cc1ccccc1OCC(O)(Cn1ccnc1)C(C)(C)C (stereo not drawn) [(C), reference compound]	k.W.	–
< 1 µg/mL	4 µg/mL (≈ 13 µM)	2 µg/mL (≈ 6.51 µM)	4 µg/mL (≈ 13 µM)	2 µg/mL (≈ 6.51 µM)	Cc1ccc(OCC(O)(Cn2cncn2)C(C)(C)CF)cc1 (stereo not drawn) [Beispiel 6]	–	–
–	–	–	–	–	C=CC(C)(C)C(O)(COc1ccc(F)cc1)Cn1ccnc1 (stereo not drawn) [Beispiel 40]	++ (schwache Wirkung = 40 % Überlebende am 6.Tag p.i.)	bessere Wirkung
16 µg/mL (≈ 35.2 µM)	64 µg/mL (≈ 141 µM)	4 µg/mL (≈ 8.8 µM)	8 µg/mL (≈ 17.6 µM)	< 1 µg/mL	CC(C)(Oc1ccc(Cl)cc1Cl)C(O)(CCc1ccc(Cl)cc1)Cn1cncn1 (stereo not drawn) [Beispiel 30]	–	–
< 1 µg/mL	< 1 µg/mL	< 1 µg/mL	< 1 µg/mL	< 1 µg/mL	CC(C)(Oc1ccc(Cl)cc1)C(O)(CCc1ccc(Cl)cc1)Cn1ccnc1 (stereo not drawn) [Beispiel 34]	–	–
4 µg/mL (≈ 8.55 µM)	< 1 µg/mL	< 1 µg/mL	< 1 µg/mL	< 1 µg/mL	CC(C)(COc1ccc(Cl)cc1Cl)C(O)(CCc1ccc(Cl)cc1)Cn1ccnc1 (stereo not drawn) [Beispiel 35]	–	–
16 µg/mL (≈ 36.8 µM)	2 µg/mL (≈ 4.6 µM)	< 1 µg/mL	2 µg/mL (≈ 4.6 µM)	< 1 µg/mL	CC(C)(COc1ccc(Cl)cc1)C(O)(CCc1ccc(Cl)cc1)Cn1cncn1 (stereo not drawn) [Beispiel 29]	–	–
< 1 µg/mL	4 µg/mL (≈ 11.6 µM)	8 µg/mL (≈ 23.3 µM)	16 µg/mL (≈ 46.5 µM)	2 µg/mL (≈ 5.82 µM)	CC(C)(CF)C(O)(CSc1ccccc1Cl)Cn1cncn1 (stereo not drawn) [Beispiel 11]	–	–
